These results are taken from patent EP0155094A1, “2-Arylimidazo(4,5-c)pyridines” (ELI LILLY AND COMPANY, priority 1984, dated 1985).

SMILES strings stand for the structures. Structures can show the parent of a compound that is named as a salt.

For assay [1], the system named is Isolated Cat Papillary Muscles. The assay can be described thus: Positive inotropic activity in isolated cat papillary muscles. Also on record: species or system Cats. Conditions: Felis catus, maximum contractility, isolated cat papillary muscle, read-out: contractility, percent of control (control = 100 percent); for activity at 100 µM: 10^-4 M; for activity at 10 µM: 10^-5 M. The protocol:
Cats of either sex were anesthetized with Metofane (1,1-difluoro-2,2-dichloroethyl methyl ether, Pittman-Moore) their hearts immediately removed and the papillary muscles dissected and suspended in individual organ baths. A platinum hook secured one end of the muscle to an electrode mounted in the bottom of the bath, and a silk thread attached the tendon to a Statham isometric transducer. The baths contained Krebs-Henseleit solution (36°C., bubbled with 95 percent oxygen - 5 percent carbon dioxide) of the following millimolar composition: NaCl, 118; KCl, 4.5; CaCl2, 2.5; KH2PO4, 1.1; MgS04, 1.2; NaHCO3, 25; and glucose, 11.
A base-line tension of 1.5 g. was applied to each muscle. Square-wave pulses (5.0 msec. in duration, 20 percent above threshold voltage) delivered through the hook electrode and a second electrode positioned near the top of the muscle evoked 12 contractions/minute, which were recorded on a Grass polygraph. After the muscles were equilibrated for 60 minutes, drugs were introduced in normal saline to bring the final concentration of the drug to 10 5 or 10^-4 molar. Increases in contractility were tabulated as millimeters of pen deflection in excess of the baseline values. In each experiment the maximum contractility was measured. As a percent of control (control = 100 percent), the compound of Example 1 produced a contractility of 149% at 10^-5 M and 168% at 10^-4 M and the compound of Example 2 gave a contractility of 240% at 10^-5M and 326% at 10^-4M.

A further assay concerns cardiac contractility. The assay can be described thus: Cardiac contractility in anesthetized dogs. The assay is classed as in vivo, Mongrel dogs. Conditions: Canis lupus familiaris, iv, i.v. bolus, read-out: ED50 (dose, i.v., which produced a peak increase of 50% over control). The protocol: Mongrel dogs of either sex ranging in weight from 7 to 14 kg. were used. Anesthesia was induced with sodium pentobarbital (30 mg./kg., i.v.) and maintained with supplemental doses as required. A positive-pressure pump was used to ventilate the dogs through an endotracheal tube (18 strokes/minute, 20 ml./kg. stroke 1), and a heating pad kept the body temperature at 37-38°C. Femoral arterial blood pressure was measured through a polyethylene catheter filled with heparin solution (16 units/ml.) and connected to a Statham pressure transducer. A strain-gauge arch sutured to the right ventricle of the heart measured cardiac contractility. Tension on the gauge was adjusted to 50 g. and the gain of the recorder (Beckman dynograph) was set so that 50 g. caused a 10-mm. pen deflection; cardiac contractile tension was measured as millimeters of pen deflection or grams of tension. The drug was administered following a 30-45 minute equilibrium period as an i.v. bolus (2-5 ml.) in a normal saline vehicle. […] The maximum effects on contractility at various dose levels were calculated as a percent of control (control = 100 percent). The compound of Example 1 produced an ED50 (dose, i.v., which produced a peak increase of 50% over control) of 0.030 mg./kg. while the compound of Example 2 gave an ^ED50 of 6 mcg./kg.

With `COc1cc(NS(C)(=O)=O)ccc1-c1nc2cnccc2[nH]1` [Example 1, 2-(2-Methoxy-4-methylsulfonamidophenyl)imidazo[4,5-c]pyridine], in assay [1], the activity at 100 µM was determined as 168% and the activity at 10 µM came out at 149%. Besides, the ED50 in the assay on cardiac contractility worked out at 0.03 mg/kg.
Consider `COc1cc(OS(C)(=O)=O)ccc1-c1nc2cnccc2[nH]1` [Example 2, 4-(Imidazo[4,5-c]pyridin-2-yl)-3-methoxyphenol, methanesulfonate (ester) hydrochloride], for which, in assay [1], the activity at 100 µM was determined as 326% and the activity at 10 µM was 240%. In addition, the ED50 in the assay on cardiac contractility was 0.006 mg/kg.

A word on the ED50: it is the dose at which the effect has come halfway, by size or by number of responders.
